# Patent US7504412B2, “Imidazopyridine derivatives” (Banyu Pharmaceuticals, Co., Ltd., priority 2003, dated 2009)
# Structures can show the parent of a compound that is named as a salt.
# Molecular target: T1, human MCH-1R (Homo sapiens, UniProt Q99705)
# T1 construct: expressed in transfected cells; host or cells: CHO-K1 (American Type Culture Collection), membrane samples
# Experiment: MCH binding inhibition test
# Settings: membrane samples from MCH-1R expression CHO-K1 cells, 50 pM [125I]MCH, 25° C., one hour; read-out: IC50 (50% inhibition concentration to specific [125I]MCH binding)
# Procedure: A human MCH-1R encoding cDNA sequence [FEBS Letters, 398, 253 (1996); Biochimica et Biophisica Acta, 1401, 216 (1998)] was cloned to plasmid vector pEF/mic/cyto (Invitrogen Corporation). The obtained expression vector was transfected to a host cell CHO-K1 (American Type Culture Collection) using lipofectamine plus reagent (Life Technology Inc.) to provide MCH-1R expression cells.
# Membrane samples prepared from the MCH-1R expression cells were incubated with each test compound and 50 pM of [^125I]MCH (NEN Co.), in an assay buffer (50 mM Tris buffer comprising 10 mM magnesium chloride, 2 mM ethylenediamine tetraacetate, 0.01% bacitracin and 0.2% bovine serum albumin; pH 7.4) at 25° C. for an hour, followed by filtration through Glass Filter GF/C (Wattman Co.). After washing the glass filter with 50 mM Tris buffer (pH7.4) comprising 10 mM magnesium chloride, 2 mM ethylenediamine tetraacetate and 0.04% Tween-20, radio activity on the glass filter was measured. Non-specific binding was measured in the presence of 1 μM human MCH and 50% inhibition concentration (IC50 value) of each test compound to specific [^125I] MCH binding was determined.
# T1 sequence (Q99705 whole entry): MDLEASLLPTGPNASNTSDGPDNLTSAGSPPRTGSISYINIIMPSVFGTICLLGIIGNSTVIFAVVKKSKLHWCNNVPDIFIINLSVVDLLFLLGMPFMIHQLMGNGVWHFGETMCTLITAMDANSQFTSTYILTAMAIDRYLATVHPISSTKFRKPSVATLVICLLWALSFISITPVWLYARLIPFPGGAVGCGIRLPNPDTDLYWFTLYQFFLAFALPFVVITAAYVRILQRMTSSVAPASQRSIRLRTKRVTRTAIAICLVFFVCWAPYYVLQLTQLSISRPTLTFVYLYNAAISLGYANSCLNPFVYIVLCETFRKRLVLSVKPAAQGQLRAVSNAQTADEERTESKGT
row,IC50,Structure (SMILES)
1,3.1 nM,"CC(C)c1cn2cc(NC(=O)c3ccc(-c4ccc(F)cc4)cc3)ccc2n1 [Example 2, 4′-Fluoro-N-(2-isopropylimidazo[1,2-a]pyridin-6-yl)[1,1′-biphenyl]-4-carboxamide]"
2,2 nM,"Cc1c(C2CC2)nc2ccc(NC(=O)c3ccc(-c4ccc(F)cc4)cn3)cn12 [Example 14, N-(2-cyclopropyl-3-methylimidazo[1,2-a]pyridin-6-yl)-5-(4-fluorophenyl)-2-pyridinecarboxamide hydrochloride]"
3,4.3 nM,"Cc1c(C2CC2)nc2ccc(NC(=O)CCc3ccc(C(F)(F)F)cc3)cn12 [Example 18, N-(2-cyclopropyl-3-methylimidazo[1,2-a]pyridin-6-yl)-3-[4-(trifluoromethyl)phenyl]propanamide]"
4,9.5 nM,"Cc1c(C(C)(C)O)nc2ccc(NC(=O)c3ccc(-c4ccc(C(F)(F)F)cn4)cc3)cn12 [Example 32, N-[2-(1-hydroxy-1-methylethyl)-3-methylimidazo[1,2-a]-pyridin-6-yl]-4-[5-(trifluoromethyl)-2-pyridyl]benzamide]"
5,10.5 nM,"O=C(Nc1ccc2nc(C3CC3)c(CO)n2c1)c1ccc(-c2ccc(C(F)(F)F)cc2)cc1 [Example 36, N-[2-cyclopropyl-3-(hydroxymethyl)imidazo[1,2-a]pyridin-6-yl]-4′-(trifluoromethyl)[1,1′-biphenyl]-4-carboxamide]"

row,Structure (SMILES),IC50
1,"Cc1c(C2CC2)nc2ccc(NC(=O)c3ccc(-c4ccccn4)cc3)cn12 [Example 17, N-(2-cyclopropyl-3-methylimidazo[1,2-a]pyridin-6-yl)-4-(2-pyridyl)benzamide hydrochloride]",3.3 nM

# System: MCH-induced feeding behavior
# Experiment: Antagonism test to MCH-induced feeding behavior
# Assay type: in vivo, rat
# Settings: male SD rats satiated with high fat diet; 10 or 30 mg/kg oral, one hour before MCH 5 μg/head into third ventricle
# Procedure: Ketamine-xylazine anesthetized (74 and 11 mg/kg single intraperitoneal administration) male SD rats (9-12 weeks old) were inserted with chronic guide cannule (26 gauge) into their third ventricle as fixed at a set cerebral location with dental resin. The position of the front end of the guide cannula was set to be 2.2 mm behind the bregma on median line and at a depth of 8 mm from the cranial surface. After two weeks' recovery term, the rats were fed with high fat diet for about 4 hours to satiation. Thereafter a needle (33 gauge) which was connected to a microsyringe was inserted into the guide cannula and through which melanin concentrating hormone (MCH, 5 μg/1 μL/head, as dissolved in artificial liquor cerebrospinalis) was administered into each rat's third ventricle. The compound of Example 17 (10 or 30 mg/kg) as suspended in 0.5% aqueous methylcellulose solution was orally administered to the rats an hour before the MCH administration. The rats were successively fed with high fat diet, and their feed intake during the two hours following the MCH administration was measured.
# In this test, the feed intake in the case where MCH and artificial liquor cerebrospinalis (aCSF) alone was administered in place of the compound of the present invention was used as the reference.
row,Structure (SMILES),feed intake during the two hours following MCH administration
1,"Cc1c(C2CC2)nc2ccc(NC(=O)c3ccc(-c4ccccn4)cc3)cn12 [Example 17, N-(2-cyclopropyl-3-methylimidazo[1,2-a]pyridin-6-yl)-4-(2-pyridyl)benzamide hydrochloride]",dose-dependently inhibited increase in the amount of feed intake induced by the MCH
